What is called IC50 is the concentration needed to halve the response being measured. Read a low IC50 as greater potency.

Type in all cases: cell-based
Experiment [1] deals with DU145 prostate cancer cell line. Nature of the experiment: MTS cell viability assay in DU145 cells. The settings on record: DU145, 48 h. As to the method: (§1) IC50 of values of berbamine derivatives were determined in cancer cell lines DU145 and A2058 respectively. DU145 and A2058 cells (5,000 cells/well) were treated with berbamine derivatives in a dose-dependent manner (0.1 to 20 μM in 1% DMSO for 48 h. Then, MTS assay for cell viability were carried out to determine the IC50 values. Four samples were tested for each berbamine derivatives at each concentration in each cell line, and the averaged data were shown in Table 1 and FIGS. 1-8.

Experiment [2] relates to A2058 human melanoma cell line. Nature of the experiment: MTS cell viability assay in A2058 cells. The settings on record: A2058, 48 h. The protocol:
as §1
(In general: Tetrazolium assays rely on reduction of a dye to a coloured formazan, in cell work by metabolically active cells.)

The subject of experiment [3] is Imatinib-resistant leukemia (K562/ADR) cells. Nature of the experiment: Cell viability in imatinib-resistant leukemia cells. As to the method:
Imatinib-resistant leukemia (K562/ADR) cells (5,000 cells/well) were treated with different concentrations (0.6-40 μM in DMSO) of BA #1, BA #3 and BA #4 respectively for 48 hours and cell viability was measured.

The test system of experiment [4] is Human normal dermal fibroblast (NHDF) cells. In words: Cell viability in normal dermal fibroblasts.
The subject of experiment [5] is human erythroleukemia HEL (homozygous JAK2 V617F mutation) cells. In words: MTS cell viability assay in HEL cells. The settings on record: HEL Jak2 V617 mutation, 48 h. The protocol: HEL Jak2 V617 mutation cells (10,000 cells/well) were treated with different concentration (0.1 μM to 20 μM in 1% DMSO of berbamine, BA #3, and BA #10 respectively for 48 h. Then, MTS assay for cell viability were carried out to determine the IC50 values. Four samples were tested for each test compound at each concentration, and the averaged data were shown in Table 3 and FIGS. 10-11.

For experiment [6], the system named is cancer cell lines. In words: IC50 in cancer cell lines tested (summary statement). Conditions: summary over cell lines tested. The text has this:
For example, berbamine derivatives (e.g. BA #3) show significant (at least 10-fold) improvement in activity over berbamine in cancer cell lines tested (e.g. K562/ADR). Berbamine derivatives (e.g. BA #3) also show inhibition of Jak2/Stat3 signaling in cancer cell lines (e.g. A2058, erythroleukemia HEL cells), and show down-regulation of Mcl-1 and Bcl-xL proteins.

In the case of `COc1cc2c3cc1Oc1c(OC)c(OC)cc4c1[C@@H](Cc1ccc(OCCCNC(=O)c5cncs5)c(c1)Oc1ccc(cc1)C[C@@H]3N(C)CC2)N(C)CC4` [BA #1], the half-inhibitory concentration (IC50) in experiment [1] turned out to be 9.4 µM; in experiment [2] it was 7.4 µM; in experiment [3] (48 hours), 6.4 µM.
On to `COc1cc2c3cc1Oc1c(OC)c(OC)cc4c1[C@@H](Cc1ccc(OCCCNC(=O)c5cncs5)c(c1)Oc1ccc(cc1)C[C@@H]3N(C)CC2)N(C)CC4` [BA #2], for which the IC50 in experiment [1] was 15.2 µM; in experiment [2], 14.6 µM.
In the case of `COc1cc2c3cc1Oc1c(OC)c(OC)cc4c1[C@@H](Cc1ccc(OCCCNC(=O)c5cncs5)c(c1)Oc1ccc(cc1)C[C@@H]3N(C)CC2)N(C)CC4` [BA #4], the IC50 in experiment [1] was determined as 15.5 µM; in experiment [2], 14.3 µM; in experiment [3] (48 hours), 3 µM.
`COc1cc2c3cc1Oc1c(OC)c(OC)cc4c1[C@@H](Cc1ccc(OCCCNC(=O)c5cncs5)c(c1)Oc1ccc(cc1)C[C@@H]3N(C)CC2)N(C)CC4` [BA #5]: the IC50 in experiment [1] was found to be 7.9 µM; in experiment [2], 3.9 µM.
With `COc1cc2c3cc1Oc1c(OC)c(OC)cc4c1[C@@H](Cc1ccc(OCCCNC(=O)c5cncs5)c(c1)Oc1ccc(cc1)C[C@@H]3N(C)CC2)N(C)CC4` [BA #6], the IC50 in experiment [1] stood at 3.5 µM; in experiment [2], 3.4 µM.
Take `COc1cc2c3cc1Oc1c(OC)c(OC)cc4c1[C@@H](Cc1ccc(OCCCNC(=O)c5cncs5)c(c1)Oc1ccc(cc1)C[C@@H]3N(C)CC2)N(C)CC4` [BA #7]: the figures for the IC50 in experiment [1] and in experiment [2] were 6.9 µM and 3.5 µM, respectively.
As for `COc1cc2c3cc1Oc1c(OC)c(OC)cc4c1[C@@H](Cc1ccc(OCCCNC(=O)c5cncs5)c(c1)Oc1ccc(cc1)C[C@@H]3N(C)CC2)N(C)CC4` [BA #8], the IC50 in experiment [1] turned out to be 6.6 µM; in experiment [2], 7.1 µM.
With `COc1cc2c3cc1Oc1c(OC)c(OC)cc4c1[C@@H](Cc1ccc(OCCCNC(=O)c5cncs5)c(c1)Oc1ccc(cc1)C[C@@H]3N(C)CC2)N(C)CC4` [BA #9], the IC50 in experiment [1] came out at 7.7 µM; in experiment [2], 8.1 µM.
For `COc1cc2c3cc1Oc1c(OC)c(OC)cc4c1[C@@H](Cc1ccc(OCCCNC(=O)c5cncs5)c(c1)Oc1ccc(cc1)C[C@@H]3N(C)CC2)N(C)CC4` [BA #10], the IC50 in experiment [1] was found to be 3.7 µM; in experiment [2] it was 3.4 µM; in experiment [4] (Homo sapiens, 48 h) it was 9.4 µM; in experiment [5], 2.8 µM.
Turning to `COc1cc2c3cc1Oc1c(OC)c(OC)cc4c1[C@@H](Cc1ccc(OCCCNC(=O)c5cncs5)c(c1)Oc1ccc(cc1)C[C@@H]3N(C)CC2)N(C)CC4` [BA #11], the half-inhibitory concentration (IC50) was 12.3 µM in experiment [1] and 8.3 µM in experiment [2].
As for `COc1cc2c3cc1Oc1c(OC)c(OC)cc4c1[C@@H](Cc1ccc(OCCCNC(=O)c5cncs5)c(c1)Oc1ccc(cc1)C[C@@H]3N(C)CC2)N(C)CC4` [BA #12], the IC50 in experiment [1] is 5.6 µM; in experiment [2], 3.3 µM; in experiment [4] (48 hours) it was 9.2 µM.
Turning to `COc1cc2c3cc1Oc1c(OC)c(OC)cc4c1[C@@H](Cc1ccc(OCCCNC(=O)c5cncs5)c(c1)Oc1ccc(cc1)C[C@@H]3N(C)CC2)N(C)CC4` [BA #13], the IC50 in experiment [1] stood at 13.6 µM; in experiment [2], 8.2 µM.
Regarding `COc1cc2c3cc1Oc1c(OC)c(OC)cc4c1[C@@H](Cc1ccc(O)c(c1)Oc1ccc(cc1)C[C@@H]3N(C)CC2)N(C)CC4` [Berbamine], the IC50 in experiment [1] (Homo sapiens, DU-145, 48 h) is greater than 20 µM; in experiment [2] (Homo sapiens), greater than 20 µM; in experiment [3] (Homo sapiens, K562/Adr, 48 h), 8.9 µM; in experiment [4] (Homo sapiens, 48 h), 24 µM; in experiment [5], 19.6 µM; in experiment [6], greater than 20 µM.
As to `O=C1c2ccccc2C(=O)N1CCCOc1ccccc1` [Phthaloyl derivative, reference compound], the 50% inhibitory concentration (IC50) is greater than 20 µM in experiment [1] (Homo sapiens, DU-145, 48 h) and greater than 20 µM in experiment [2] (Homo sapiens).

The values above are taken from US9233976B2, “Berbamine derivatives” (CITY OF HOPE, priority 2009, dated 2016).
